# Experimental data taken from ChEMBL document CHEMBL1135094, “Potent, orally active inhibitors of lipoprotein-associated phospholipase A(2): 1-(biphenylmethylamidoalkyl)-pyrimidones” (Bioorg Med Chem Lett, 2002).
# Biological target: T1, Platelet-activating factor acetylhydrolase (Homo sapiens, UniProt Q13093)
# T1 sequence (Q13093 whole entry): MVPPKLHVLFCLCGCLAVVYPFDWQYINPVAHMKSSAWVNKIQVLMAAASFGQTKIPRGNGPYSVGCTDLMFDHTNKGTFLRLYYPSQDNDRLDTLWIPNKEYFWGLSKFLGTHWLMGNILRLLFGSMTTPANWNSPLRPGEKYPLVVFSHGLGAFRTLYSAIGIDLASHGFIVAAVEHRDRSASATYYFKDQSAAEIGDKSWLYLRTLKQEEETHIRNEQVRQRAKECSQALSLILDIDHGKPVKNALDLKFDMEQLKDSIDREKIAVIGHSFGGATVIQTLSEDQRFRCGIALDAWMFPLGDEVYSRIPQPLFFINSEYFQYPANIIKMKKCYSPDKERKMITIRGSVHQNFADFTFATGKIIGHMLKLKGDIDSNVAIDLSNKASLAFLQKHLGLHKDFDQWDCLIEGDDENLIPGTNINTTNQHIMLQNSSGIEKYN
# Assay: Inhibitory activity against recombinant human Lp-PLA2 (Lp-PLA2).
row,SMILES,IC50 [nM]
1,COc1ncc(Cc2cn(CC(=O)N(C)Cc3ccc(-c4ccc(C(F)(F)F)cc4)cc3)c(SCc3ccc(F)cc3)nc2=O)cn1,0.2
2,O=C(Cn1cc(Cc2cncnc2)c(=O)nc1SCc1ccc(F)cc1)NCc1ccccc1-c1ccccc1,194
3,CCn1cc(Cc2cn(CC(=O)N(C)Cc3ccc(-c4ccc(Cl)cc4)cc3)c(SCc3ccc(F)cc3)nc2=O)cnc1=O,0.5
4,COc1ncc(Cc2cn(CC(=O)N(C)Cc3ccc(-c4ccc(F)cc4)cc3)c(SCc3ccc(F)cc3)nc2=O)cn1,0.6
5,CN(Cc1ccc(-c2ccc(Cl)cc2)cc1)C(=O)Cn1cc(Cc2cnc(N(C)C)nc2)c(=O)nc1SCc1ccc(F)cc1,0.8
6,COc1ncc(Cc2cn(CCCC(=O)N(C)Cc3ccc(-c4ccc(Cl)cc4)cc3)c(SCc3ccc(F)cc3)nc2=O)cn1,5
7,O=C(Cn1cc(Cc2cncnc2)c(=O)nc1SCc1ccc(F)cc1)NCc1cccc(-c2ccccc2)c1,24
8,COc1ncc(Cc2cn(CC(=O)NCc3ccc(-c4ccc(Cl)cc4)cc3)c(SCc3ccc(F)cc3)nc2=O)cn1,0.5
9,COc1ncc(Cc2cn(CCCC(=O)NCc3ccc(-c4ccccc4)cc3)c(SCc3ccc(F)cc3)nc2=O)cn1,4
10,CN(Cc1ccc(-c2ccc(Cl)cc2)cc1)C(=O)Cn1cc(Cc2cnc(C(F)(F)F)nc2)c(=O)nc1SCc1ccc(F)cc1,5
11,CN(Cc1ccc(-c2ccc(F)cc2)cc1)C(=O)CCCn1cc(Cc2cnn(C)c2)c(=O)nc1SCc1ccc(F)cc1,8
12,Cn1cc(Cc2cn(CCCC(=O)NCc3ccc(-c4ccccc4)cc3)c(SCc3ccc(F)cc3)nc2=O)cn1,5
13,CN(Cc1ccc(-c2ccc(Cl)cc2)cc1)C(=O)Cn1cc(Cc2cnc(N3CCOCC3)nc2)c(=O)nc1SCc1ccc(F)cc1,1
14,COc1ncc(Cc2cn(CCCC(=O)NCc3ccc(-c4ccc(Cl)cc4)cc3)c(SCc3ccc(F)cc3)nc2=O)cn1,4
15,CN(Cc1ccc(-c2ccccc2)cc1)C(=O)Cn1cc(Cc2cncnc2)c(=O)nc1SCc1ccc(F)cc1,8
16,O=C(Cn1cc(Cc2cncnc2)c(=O)nc1SCc1ccc(F)cc1)NCc1ccc(-c2ccccc2)cc1,4
17,Cn1cc(Cc2cn(CCCC(=O)NCc3ccc(-c4ccc(F)cc4)cc3)c(SCc3ccc(F)cc3)nc2=O)cn1,4
